Laboratory results reported in patent US20140314686A1, “POLYPHENOL/FLAVONOID COMPOSITIONS AND METHODS OF FORMULATING ORAL HYGIENIC PRODUCTS” (API Genesis, LLC, priority 2013, published 2014).
Converted amounts (≈) assume the structure as drawn.

Experiments:
[1] = Solubility in PS80 via the thermal processing method (polyphenol/surfactant concentrate); conditions: for solubility: 20 °C, organic solvent or mixture; for PS80 Solution Temp.: temperature of complete solubilization in PS80
Experimental: The molar ratio of active agent (polyphenol) to solubilizing agent (surfactant) is typically 1:2 to 1:5, and at times much greater, e.g. 1:2 to 1:20 depending on the active agent/surfactant combination.
Apigenin/Polysorbate 80 (PS80) formulations can be made as follows: • Apigenin powder and PS80 are mixed in the ratio from about 5 to 10 wt. % of apigenin to 95 to 90 wt. % PS80.
All solubility tests were conducted with 20 ml of PS80 contained within 80 ml Pyrex glass beakers.

[2] = EGCG retention in saliva after brushing with alkaline EGCG toothpaste (colour on alkalizing); format: in vivo, human; conditions: PeroxiCare toothpaste with 0.1 wt. % EGCG and 0.1 wt. % ascorbic acid, saliva after brushing and rinsing
[3] = Solubilization in Listerine mouth rinse via sodium salt and pH adjustment; format: physicochemical
Experimental: 100 grams of the Listerine® Resveratrol Containing Mouth Rinse formulation was prepared as follows: • 1. 98.4 grams of the Listerine® caramel colored mouth rinse was added to a 300 ml Pyrex glass beaker. […] About 0.2 grams of fine NaOH crystals were added to the mixture from Step 2 and thoroughly mixed. A uniformly caramel colored blend resulted with a measured pH of ˜10. […] The pH the mixture from Step 3 was adjusted to a pH 6.5 by the addition of about 0.2 grams of citric acid crystals. […] • 1. 98.6 grams of the Listerine® caramel colored mouthrinse was added to a 300 ml Pyrex glass beaker. […] About 0.2 grams of fine NaOH crystals were added to the mixture from Step 2 and thoroughly mixed. A uniformly caramel colored blend resulted with a measured pH of ˜10. […] The pH the mixture from Step 2 was adjusted to a pH 8 by the addition of about 0.2 grams of citric acid crystals.

[4] = pH required for a stable aqueous microemulsion with nonionic surfactants; format: physicochemical; conditions: nonionic surfactants Polysorbate 80 and Cremophor RH40
Description: In one embodiment, a flavonoid/polyphenol microemulsion can be made as follows: • The mixing of a flavonoid/polyphenol with an alkali metal component (e.g., alkali metal hydroxide(s) and/or alkaline metal salt(s)) to form an alkali metal flavonoid/polyphenol salt within an aqueous solution. • Adding a surfactant in the ratio from about 5 to 20 wt. % of the flavonoid/polyphenol to 95 to 80 wt. % of a surfactant; preferable a nonionic surfactant. • This mixture is thoroughly stirred to form a uniform clear solution. • Adjusting (e.g., acidifying) the alkali metal flavonoid/polyphenol salt with an agent (e.g., an acidic agent such as acetic acid and/or hydrochloric acid) to a pH level required to form a clear and stable microemulsion.
Stable microemulsions with apigenin and the nonionic surfactants, Polysorbate 80 and Cremophor RH40, were achieved provided a pH level of 8.0 to 8.5 was maintained. For luteolin, it as determined that a pH of 7 was required to maintain a stable aqueous microemulsion; and for resveratrol, a pH of >4.5 to 7.5.

[5] = Stability of soluble flavone sodium salts in bicarbonate/peroxide dentifrice; format: physicochemical; conditions: dentifrice with sodium bicarbonate, peroxide and peroxide stabilizer, pH ~10-10.5
Experimental: It was experimentally determined that the toothpaste formulations containing both sodium bicarbonate and sodium carbonate peroxide together with stabilizing polymer formulations had pHs of ˜10-10.5. When aglycone flavone (i.e., apigenin and luteolin) powders were added to dentifrices including sodium bicarbonate, sodium bicarbonate peroxide and a peroxide stabilizer, it was also determined that soluble flavone sodium salts were formed that were stable in these highly oxidative peroxide compositions. The presence of stable soluble alkali metal flavone salts with highly anti-oxidant and anti-inflammatory properties in an emulsion formulation was totally unanticipated since aglycone flavones are prone to oxidative decomposition.

Row | Compound | solubility ([1]; Polysorbate 80 (PS80)) [mg/mL] | PS80 Solution Temp. [1] [°C] | solubility (Solubility in water; water, 20 °C) [mg/mL] | other results
1 | O=c1c(-c2ccc(O)cc2)coc2cc(O)cc(O)c12 [Genistein] |  | ~220 |  | solubility [1]: 50 mg/mL; solubility (Solubility in water; 20 °C, water): 0.12 mg/mL (≈ 444 µM)
2 | O.Oc1cc(O)c2c(c1)O[C@H](c1ccc(O)c(O)c1)[C@@H](O)C2 [Catechin] |  | ~210 |  | PS80 Solubility ([1]; at 20° C., 20 ml PS80, not the maximum solubility levels in PS80): 50 mg/mL; Water Solubility (Solubility in water; at 20° C.): ~5 mg/mL
3 | Oc1ccc(C=Cc2cc(O)cc(O)c2)cc1 [Resveratrol, resveratrol] |  |  |  | concentration in transparent solution ([3]; NaOH to pH ~10, citric acid to pH 6.5): 1200 µg/mL
4 | O=c1cc(-c2ccc(O)c(O)c2)oc2cc(O)cc(O)c12 [Luteolin, 3′,4′,5,7-tetrahydroxyflavone] |  |  |  | pH level for a stable aqueous microemulsion [4]: 7; concentration in transparent solution ([3]; NaOH to pH ~10, citric acid to pH 8): 1500 µg/mL; stability of soluble flavone sodium salt in oxidative peroxide composition [5]: stable
5 | O=c1cc(-c2ccccc2)oc2cc(O)cc(O)c12 [Chrysin] | 50 | ~140 | 0.08 (≈ 315 µM) | 
6 | O=c1cc(-c2ccc(O)cc2)oc2cc(O)cc(O)c12 [Apigenin, 4′,5,7,-trihydroxyflavone] |  |  |  | concentration of stable concentrate in PS80 ([1]; 5.0 wt. % in PS80, heated approaching 300 degree C, cooled to ambient): 50000 µg/mL; stability of soluble flavone sodium salt in oxidative peroxide composition [5]: stable

The next lines start with results.

Row | solubility ([1]; Polysorbate 80 (PS80)) [mg/mL] | PS80 Solution Temp. [1] [°C] | solubility (Solubility in water; water, 20 °C) [mg/mL] | Compound | other results
7 | 50 | ~150 | ~25 (≈ 54500 µM) | O=C(O[C@@H]1Cc2c(O)cc(O)cc2O[C@@H]1c1cc(O)c(O)c(O)c1)c1cc(O)c(O)c(O)c1 [Epigallocatechin Gallate (EGCG), Epigallocatechin gallate] | retention in saliva (red/brown color on alkalizing saliva to pH ~10.5) [2]: retained
8 | 50 | ~280 | 0.04 (≈ 147 µM) | O=C1C[C@@H](c2ccc(O)cc2)Oc2cc(O)cc(O)c21 [Naringenin] | 
